The target of one test is T1, human TNFR2 ECD protein (Homo sapiens, UniProt P20333).
T1 construct: HRV 3C protease cleavage site (C); 6His (C, cleaved yes); made in house; host or cells: Sf21 insect cells (baculovirus), secreted
T1 sequence (P20333 23-257): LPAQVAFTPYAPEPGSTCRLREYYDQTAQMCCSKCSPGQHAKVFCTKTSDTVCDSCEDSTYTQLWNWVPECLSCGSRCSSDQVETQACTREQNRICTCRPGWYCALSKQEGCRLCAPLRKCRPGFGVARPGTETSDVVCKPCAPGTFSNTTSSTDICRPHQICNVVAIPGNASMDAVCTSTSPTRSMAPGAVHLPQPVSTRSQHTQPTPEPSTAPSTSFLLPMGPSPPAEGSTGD
Briefly: SPR off-target binding (selectivity) to human TNFR2 ECD. In a few lines: (§1)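 Biotinylated human TNFR1 or TNFR2 ECD (C-terminal Avi-tag, Sf21-expressed) captured on a regenerable streptavidin chip; peptide analytes flowed in 10 mM HEPES pH 7.4, 150 mM NaCl, 3 mM EDTA, 0.05% P20, 2% DMSO. kon and koff measured; affinity calculated from the rate constants.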

Test [1] deals with T2, human TNFR1 extracellular domain (ECD) protein (Homo sapiens, UniProt P19438).
T2 construct: HRV 3C protease cleavage site (C); 6His (C, cleaved yes); made in house; host or cells: Sf21 insect cells (baculovirus), secreted
T2 sequence (P19438 30-211): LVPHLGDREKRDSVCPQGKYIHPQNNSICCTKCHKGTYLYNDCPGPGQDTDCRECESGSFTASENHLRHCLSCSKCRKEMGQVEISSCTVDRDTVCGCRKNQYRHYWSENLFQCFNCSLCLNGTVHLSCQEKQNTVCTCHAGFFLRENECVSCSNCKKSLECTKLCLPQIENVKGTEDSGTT
Briefly: SPR binding affinity to captured human TNFR1 ECD. Summed up:
as §1
(In SPR one partner is held on a chip, and binding of the other changes the refractive index at the surface.)

Test [2] has as its target T3, human soluble TNFR1 (sTNFR1) (Homo sapiens, UniProt P19438).
T3 construct: made in house; host or cells: Sf21 (baculovirus)
T3 sequence (P19438 with tags, fused parts or gaps): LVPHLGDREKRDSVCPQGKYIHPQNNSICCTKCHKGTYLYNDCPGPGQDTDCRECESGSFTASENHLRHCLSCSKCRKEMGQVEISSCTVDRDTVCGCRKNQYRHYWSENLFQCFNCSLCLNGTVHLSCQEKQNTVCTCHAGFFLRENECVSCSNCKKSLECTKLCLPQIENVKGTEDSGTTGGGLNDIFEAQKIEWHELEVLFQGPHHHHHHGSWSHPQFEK
Briefly: Human sTNFR1-peptide displacement assay (LanthaScreen Eu TR-FRET binding assay). In a few lines:
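Readout is the 665/615 nm TR-FRET ratio (Eu anti-His donor, streptavidin-Alexa647 acceptor), normalized to DMSO and saturating displacer, fit by Morrison-based five-parameter logistic for Kd^app. His-tagged sTNFR1 (1-211) prebound to 100 nM biotinylated peptide SEQ ID NO.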
A general note: TR-FRET usually uses a lanthanide donor and a delayed reading to cut background.

Numbered stars: 1 amine (or outer) side, 2 acyl side, 3 side chain; on linkers, the order of the positions; unused ones are H or OH. Bridge positions count the residues as written; N and C are the ends. Square brackets hold non-standard residues; d marks the D form. Peptide text beside a SMILES is read from it. Trp(βS-Me,7-OMe) = COc1cccc2c([C@H](C)[C@H](N)C(=O)O)c[nH]c12; Ala(1-bicyclo(1.1.1)pentyl) = N[C@@H](CC12CC(C1)C2)C(=O)O; Phe(3-CH2NH2) = O=C([C@H](Cc1cccc(CN[*:3])c1)N[*:1])[*:2]; Trp(4-Cl) = N[C@@H](Cc1c[nH]c2cccc(Cl)c12)C(=O)O; Trp(7-Cl) = N[C@@H](Cc1c[nH]c2c(Cl)cccc12)C(=O)O; Phe(4-CONH2) = NC(=O)c1ccc(C[C@H](N)C(=O)O)cc1; Phe(4-COOH) = N[C@@H](Cc1ccc(C(=O)O)cc1)C(=O)O; Trp(7-aza) = N[C@@H](Cc1c[nH]c2ncccc12)C(=O)O; Trp(1-Me) = Cn1cc(C[C@H](N)C(=O)O)c2ccccc21; dPro(cis-4-NH2) = N[C@H]1CN[C@@H](C(=O)O)C1; N(CH2CH2COOH)Gly = O=C(O)CCNCC(=O)O; Pip(4-aza) = O=C(O)[C@@H]1CNCCN1; 4Pal = N[C@@H](Cc1ccncc1)C(=O)O; NMeE = CN[C@@H](CCC(=O)O)C(=O)O; NMeN = CN[C@@H](CC(N)=O)C(=O)O; Pip = O=C(O)[C@@H]1CCCCN1; αMeS = C[C@](N)(CO)C(=O)O; Nle = CCCC[C@H](N)C(=O)O; Sar = CNCC(=O)O

Consider `CCCC[C@@H]1NC(=O)CSC[C@@H](C(N)=O)NC(=O)[C@H]([C@@H](C)c2c[nH]c3c(OC)cccc23)NC(=O)CN(C)C(=O)[C@H](Cc2ccc(O)cc2)NC(=O)[C@H](Cc2ccc(C(=O)O)cc2)NC(=O)[C@](C)(CO)NC(=O)[C@H](Cc2c[nH]c3c(Cl)cccc23)NC(=O)[C@H](Cc2ccc(OC)cc2)NC(=O)[C@H](CC(N)=O)NC(=O)[C@H](CCC(=O)O)N(C)C(=O)[C@H](Cc2c[nH]c3ccccc23)NC(=O)[C@@H]2CNCCN2C(=O)[C@H](Cc2ccncc2)NC1=O` [SEQ ID NO. 218] ({CH2CO}-[Nle][4Pal][Pip(4-aza)]W[NMeE]NY(Me)[Trp(7-Cl)][αMeS][Phe(4-COOH)]Y[Sar][Trp(βS-Me,7-OMe)]C-NH2; thioether N-14), for which the Kd on human TNFR2 ECD protein was more than 1000 nM; in test [1], 0.5 nM. In addition, in test [2], the IC50 is 1.15 nM.

In the case of `CCCC[C@@H]1NC(=O)CSC[C@@H](C(N)=O)NC(=O)[C@H]([C@@H](C)c2c[nH]c3c(OC)cccc23)NC(=O)CN(C)C(=O)[C@H](Cc2ccc(O)cc2)NC(=O)[C@H](Cc2ccc(C(N)=O)cc2)NC(=O)[C@](C)(CO)NC(=O)[C@H](Cc2c[nH]c3c(Cl)cccc23)NC(=O)[C@H](Cc2ccncc2)NC(=O)[C@H](CC(N)=O)NC(=O)[C@H]2C[C@@H](N)CN2C(=O)[C@H](Cc2c[nH]c3ncccc23)NC(=O)[C@@H]2CNCCN2C(=O)[C@H](Cc2ccncc2)NC1=O` [SEQ ID NO. 219] ({CH2CO}-[Nle][4Pal][Pip(4-aza)][Trp(7-aza)][dPro(cis-4-NH2)]N[4Pal][Trp(7-Cl)][αMeS][Phe(4-CONH2)]Y[Sar][Trp(βS-Me,7-OMe)]C-NH2; thioether N-14), the Kd on human TNFR2 ECD protein was more than 1000 nM; in test [1], 0.1 nM; in test [2] it was 0.15 nM. This compound also displayed an IC50 in test [2] of 0.3 nM.

As for `CCCC[C@@H]1NC(=O)CSC[C@@H](C(N)=O)NC(=O)[C@H]([C@@H](C)c2c[nH]c3c(OC)cccc23)NC(=O)CN(C)C(=O)[C@H](Cc2ccc(O)cc2)NC(=O)[C@H](Cc2ccc(C(=O)O)cc2)NC(=O)[C@](C)(CO)NC(=O)[C@H](Cc2c[nH]c3c(Cl)cccc23)NC(=O)[C@H](Cc2ccncc2)NC(=O)[C@H](CC(N)=O)NC(=O)CN(CCC(=O)O)C(=O)[C@H](Cc2c[nH]c3ncccc23)NC(=O)[C@@H]2CCCCN2C(=O)[C@H](Cc2ccncc2)NC1=O` [SEQ ID NO. 220] ({CH2CO}-[Nle][4Pal][Pip][Trp(7-aza)][N(CH2CH2COOH)Gly]N[4Pal][Trp(7-Cl)][αMeS][Phe(4-COOH)]Y[Sar][Trp(βS-Me,7-OMe)]C-NH2; thioether N-14), the values for the Kd (at human TNFR2 ECD protein; in test [1]; in test [2]) were more than 1000 nM, 0.25 nM and 0.55 nM, respectively.

`CN1CC(=O)N[C@@H](Cc2c[nH]c3cccc(Cl)c23)C(=O)N[C@H](C(N)=O)CSCC(=O)N[C@@H](CC23CC(C2)C3)C(=O)N[C@@H](Cc2cccc(CN)c2)C(=O)N[C@@H](CO)C(=O)N[C@@H](Cc2c[nH]c3c(Cl)cccc23)C(=O)N2CCC[C@@H]2C(=O)N(C)[C@@H](CC(N)=O)C(=O)N[C@@H](Cc2ccc(C(=O)O)cc2)C(=O)N[C@@H](Cc2c[nH]c3c(Cl)cccc23)C(=O)N[C@@](C)(CO)C(=O)N[C@@H](Cc2ccc(C(=O)O)cc2)C(=O)N[C@@H](Cc2cccc(CN)c2)C1=O` [SEQ ID NO. 222] ({CH2CO}-[Ala(1-bicyclo(1.1.1)pentyl)][Phe(3-CH2NH2)]S[Trp(7-Cl)][dP][NMeN][Phe(4-COOH)][Trp(7-Cl)][αMeS][Phe(4-COOH)][Phe(3-CH2NH2)][Sar][Trp(4-Cl)]C-NH2; thioether N-14): the results for the Kd (at human TNFR2 ECD protein; in test [1]) were more than 1000 nM and 0.18 nM, respectively. In test [2], this compound yielded an IC50 of 1.73 nM.

Turning to `CCCC[C@@H]1NC(=O)CSC[C@@H](C(N)=O)NC(=O)[C@H](Cc2cn(C)c3ccccc23)NC(=O)CN(C)C(=O)[C@H](Cc2ccc(O)cc2)NC(=O)[C@H](Cc2ccc(C(=O)O)cc2)NC(=O)[C@](C)(CO)NC(=O)[C@H](Cc2c[nH]c3c(Cl)cccc23)NC(=O)[C@H](Cc2ccncc2)NC(=O)[C@H](CC(N)=O)NC(=O)[C@H](CCC(=O)O)N(C)C(=O)[C@H](Cc2c[nH]c3ncccc23)NC(=O)[C@H](CO)NC(=O)[C@H](Cc2ccncc2)NC1=O` [SEQ ID NO. 223] ({CH2CO}-[Nle][4Pal]S[Trp(7-aza)][NMeE]N[4Pal][Trp(7-Cl)][αMeS][Phe(4-COOH)]Y[Sar][Trp(1-Me)]C-NH2; thioether N-14), the Kd was more than 1000 nM at human TNFR2 ECD protein, 0.3 nM in test [1] and 0.48 nM in test [2]. The compound also yielded an IC50 in test [2] of 0.39 nM.

As a reminder, the Kd is the constant that tells how readily two partners part at equilibrium. Low values mean a tighter complex, high ones a looser complex. The IC50 is the concentration needed to halve the response being measured. A higher IC50 goes with weaker potency.
